For experiment [1], the system named is PRB-mediated amphiregulin gene transcription. Description: Quantitative RT-PCR of endogenous gene transcription in MDA-MB-231 iPRAB cells. It counts as cell-based, human. The settings on record: APRn 1 μM, 6 h, FIG. 10. The method, then:
MDA-MB-231 iPRAB cells were cultured in 6-well plates in RPMI 1640 medium with L-glutamine without phenol red, enriched with 5% DCC serum containing inducer ligand RSL1 (500 nM) or Dox (1 μg/ml) for PRA or PRB expression during 24 h. […] Total RNA was then extracted using TRIZOL reagent (Invitrogen). One μg of total RNA was treated with DNase I Amplification Grade (Invitrogen) and then reverse transcribed using cDNA RT kit from Applied Biosystems (Courtaboeuf, France) and random primers. Following a ten-fold dilution, the cDNA samples were amplified in duplicate by real-time PCR in ABI 7300 apparatus (Applied Biosystems), using the Power SYBR Green PCR Master Mix (Applied Biosystems) in the presence of 300 nM of forward and reverse specific primers. A dissociation curve was also obtained at the end of the reaction to verify the specificity of the pair of primers. Standard curve for PCR calibration of each gene transcript tested was obtained with the corresponding amplicon subcloned in pGEMT-easy (Promega) and verified by sequencing analysis. The expression level of each gene transcript was normalized to 18S RNA level, and results were expressed as means of relative concentrations of six samples (attomole of specific gene cDNA/femtomole of 18S cDNA±SEM.)
The selected APRn (APR16, APR19, APR43, APR47, APR51, APR54) were verified for their agonist and antagonistic properties on endogenous gene transcription. A ligand activated PRB target gene, amphiregulin was selected for these studies (Georgiakaki, M. Mol Endocrinol 2006, 20, 2122) and quantitative RT-PCR analysis was performed in MDA-MB-231 iPRAB cells as described in Materials and Methods.

In a further experiment the target is T1, hPRB and SMRT (Homo sapiens, UniProt P06401).
T1 construct: expressed in transfected cells; host or cells: HEK 293T
T1 sequence (P06401 1-933): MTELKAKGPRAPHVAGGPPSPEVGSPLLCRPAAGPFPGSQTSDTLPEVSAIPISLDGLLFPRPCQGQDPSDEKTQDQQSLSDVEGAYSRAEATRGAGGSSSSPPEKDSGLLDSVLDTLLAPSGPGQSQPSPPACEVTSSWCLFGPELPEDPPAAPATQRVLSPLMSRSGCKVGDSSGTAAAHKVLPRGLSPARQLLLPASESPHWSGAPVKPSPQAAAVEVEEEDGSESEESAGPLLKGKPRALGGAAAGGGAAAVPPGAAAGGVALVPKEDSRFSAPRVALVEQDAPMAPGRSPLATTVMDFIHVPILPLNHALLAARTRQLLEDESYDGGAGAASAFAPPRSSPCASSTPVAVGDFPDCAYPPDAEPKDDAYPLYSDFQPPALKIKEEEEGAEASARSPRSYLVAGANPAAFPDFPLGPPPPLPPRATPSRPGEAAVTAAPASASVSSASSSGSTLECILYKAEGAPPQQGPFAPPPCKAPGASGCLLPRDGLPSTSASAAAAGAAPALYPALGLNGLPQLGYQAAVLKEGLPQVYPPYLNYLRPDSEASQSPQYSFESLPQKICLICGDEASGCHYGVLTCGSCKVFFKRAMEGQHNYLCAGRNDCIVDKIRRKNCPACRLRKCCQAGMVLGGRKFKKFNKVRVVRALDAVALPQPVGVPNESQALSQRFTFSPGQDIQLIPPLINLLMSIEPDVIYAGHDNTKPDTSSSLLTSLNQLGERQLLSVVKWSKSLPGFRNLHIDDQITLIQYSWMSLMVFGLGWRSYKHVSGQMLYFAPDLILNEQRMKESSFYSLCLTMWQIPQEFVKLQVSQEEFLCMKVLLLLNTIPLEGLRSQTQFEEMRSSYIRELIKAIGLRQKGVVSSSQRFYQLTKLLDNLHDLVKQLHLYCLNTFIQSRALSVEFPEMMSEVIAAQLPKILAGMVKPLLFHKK
Description: Mammalian two hybrid assay, recruitment of co-repressor SMRT by hPRB. The experiment is classed as cell-based. The settings on record: HEK293T, FIGS. 13 and 14. The procedure: (§1) Mammalian Two Hybrid Assays.
(§2) To investigate whether hPR was able to recruit transcriptional corepressors upon APRn binding, two hybrid assays have been performed in HEK 293T cells. Cell transfection were carried out according to the protocol used for the PR transactivation assays, with 1 μg of pGAL4-SMRT or pGAL4-NcoR, 2.5 μg of the PR expression vector pV16-PR and 5 μg of the reporter pG5-luc. The plasmid pGAL4-SMRT and pGAL4-NcoR, provided by P. Balaguer, encode the fusion protein between the GAL4 DNA-binding domain (GAL4DBD) and the receptor interacting domain (RID) of the corepressor […], respectively. The expression vector pV16PR encodes the VP16 activation domain of herpes simplex virus fused to the entire hPR and pG5-luc, provided by P. Fuller, encodes the luciferase gene driven by a GAL4-responsive promoter. […] Cell transfection were carried out according to the PR transactivation assays, by using 2 μg of pM-TIF2/Nter-RID or […], 2 μg of the expression vector pV16PR and 5 μg of the reporter pG5luc. The plasmids pM-TIF2/Nter-RID encodes the fusion proteins between the GAL4 DBD and the 1-867 TIF2 sequence corresponding to the Nter and RID domains. The plasmids pMTIF2-Nter encodes the fusion proteins between the GAL4 DBD and the 1-623 TIF2 sequence corresponding to the Nter domain. After 16 h incubation, the transfected cells were washed with PBS containing 2.5 mM EDTA, trypsinized and replated in 24-well plates. […] Cells were lysed and the luciferase and activities were quantified by using a Mithras reader microplates (Berthold).
(§3) Both agonist- and antagonist-bound PR regulate gene transcription with the assistance of transcriptional co-repressors (NCoR, SMRT) or co-activators (namely, TIF-2). To characterize the mechanism by which APRn inactivate hPRB, the capacity of hPRB to recruit transcriptional co-regulators upon APRn binding has been evaluated. […]

The target of another experiment is T2, hPRB and NCoR (Homo sapiens, UniProt P06401).
T2 construct: expressed in transfected cells; host or cells: HEK 293T
T2 sequence (P06401 1-933): T1 sequence (P06401 1-933)
Description: Mammalian two hybrid assay, recruitment of co-repressor NCoR by hPRB. To be noted: HEK293T, FIGS. 12 and 14. The experiment is classed as cell-based. The procedure: as §1, §2, §3

For `C[C@]12CCC3C(CC=C4C[C@@H](F)CC[C@@H]43)C1CCC2=O` (stereo partly drawn) [APR-47, 3β-Fluoro-19-nor-androst-5-en-17-one], the “agonistic effect on amphiregulin gene transcription” value (“agonistic effect” below) in experiment [1] is on record as “nearly unable to exert agonistic effect”. In addition, on hPRB and SMRT, the “recruitment of co-repressor SMRT by hPRB upon ligand binding” value (from here on “recruitment of co-repressor SMRT”) is “unable to recruit”. For the same compound, the “recruitment of co-repressor NCoR by hPRB upon ligand binding” value (“recruitment of co-repressor NCoR” for short) on hPRB and NCoR is “unable to recruit”.

With `CC#C[C@]1(O)CCC2C3CC[C@H]4CCCC[C@@H]4C3CC[C@@]21C` (stereo partly drawn) [APR-54, 17α-(1-Propynyl)-19-nor-5-androstan-17β-ol], the “agonistic effect” value in experiment [1] is reported as “nearly unable to exert agonistic effect”. The “recruitment of co-repressor SMRT” value at hPRB and SMRT was “unable to recruit”. Besides, the “recruitment of co-repressor NCoR” value at hPRB and NCoR is “unable to recruit”.

Regarding `CC(=O)[C@H]1CC[C@H]2[C@@H]3CC=C4C[C@@H](F)CC[C@]4(C)[C@H]3CC[C@]12C` [APR-16, 3β-Fluoropregn-5-en-20-one], the “agonistic effect” value in experiment [1] is given as “nearly unable to exert agonistic effect”. Moreover, at hPRB and SMRT, the “recruitment of co-repressor SMRT” value is reported as “unable to recruit”. The “recruitment of co-repressor NCoR” value on hPRB and NCoR is recorded as “unable to recruit”.

The values are drawn from patent US20130203718A1 (priority 2010, published 2013).
